Measured values reported in PubChem BioAssay (NCI).
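Five compound concentrations were applied to cells in 96-well plates for 48 hours; endpoints were derived by simple linear interpolation of the resulting dose-response curve. TGI is the concentration that stops growth completely.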

Key:
Test in all cases: growth of human tumour cells (NCI), 48 h
[1] = test system: K-562 leukemia
[2] = test system: SF-268 CNS
[3] = test system: EKVX NSCLC
[4] = test system: NCI-H522 lung
[5] = test system: U251 CNS
[6] = test system: SNB-19 CNS
[7] = test system: 786-0 renal
[8] = test system: TK-10 renal
[9] = test system: CCRF-CEM leukemia
[10] = test system: LOX IMVI melanoma
[11] = test system: UO-31 renal
[12] = test system: SK-MEL-2 melanoma
[13] = test system: HT29 colon
[14] = test system: SF-295 CNS
[15] = test system: OVCAR-8 ovarian
[16] = test system: MDA-N
[17] = test system: A498 renal
[18] = test system: A549 NSCLC
[19] = test system: IGROV1 ovarian
[20] = test system: HCC-2998 colon
[21] = test system: NCI-H460 lung
[22] = test system: HOP-92 NSCLC
[23] = test system: MCF7 breast
[24] = test system: NCI-H226 lung
[25] = test system: SW-620 colon
[26] = test system: DU-145 prostate
[27] = test system: MALME-3M melanoma
[28] = test system: HOP-62 NSCLC
[29] = test system: UACC-257 melanoma
[30] = test system: OVCAR-5 ovarian
[31] = test system: KM12 colon
[32] = test system: PC-3 prostate
[33] = test system: OVCAR-3 ovarian
[34] = test system: MOLT-4 leukemia
[35] = test system: SF-539 CNS
[36] = test system: OVCAR-4 ovarian
[37] = test system: RXF 393 renal
[38] = test system: HS 578T breast
[39] = test system: SK-MEL-28 melanoma
[40] = test system: NCI/ADR-RES ovarian
[41] = test system: T-47D breast
[42] = test system: SR leukemia
[43] = test system: SNB-75 CNS
[44] = test system: M14 melanoma
[45] = test system: HL-60(TB) leukemia
[46] = test system: SN12C renal
[47] = test system: NCI-H23 lung
[48] = test system: MDA-MB-435
[49] = test system: CAKI-1 renal
[50] = test system: COLO 205 colon
[51] = test system: HCT-15 colon
[52] = test system: HCT-116 colon
[53] = test system: ACHN renal
[54] = test system: MDA-MB-231 breast
[55] = test system: BT-549 breast
[56] = test system: SK-MEL-5 melanoma

COc1nn(Cc2ccccc2F)c2ccc([N+](=O)[O-])cc12
TGI [1]: > 100 µM
TGI [2]: > 100 µM
TGI [3]: > 100 µM
TGI [4]: > 100 µM
TGI [5]: > 100 µM
TGI [6]: > 100 µM
TGI [7]: > 100 µM
TGI [8]: > 100 µM
TGI [9]: > 100 µM
TGI [10]: > 100 µM
TGI [11]: > 100 µM
TGI [12]: > 100 µM
TGI [13]: > 100 µM
TGI [14]: > 100 µM
TGI [15]: > 100 µM
TGI [16]: > 100 µM
TGI [17]: > 92.3 µM
TGI [18]: > 100 µM
TGI [19]: > 100 µM
TGI [20]: > 100 µM
TGI [21]: > 100 µM
TGI [22]: > 100 µM
TGI [23]: > 100 µM
TGI [24]: > 100 µM
TGI [25]: > 100 µM
TGI [26]: > 100 µM
TGI [27]: > 100 µM
TGI [28]: > 100 µM
TGI [29]: > 100 µM
TGI [30]: > 100 µM
TGI [31]: > 100 µM
TGI [32]: > 100 µM
TGI [33]: > 100 µM
TGI [34]: > 100 µM
TGI [35]: > 100 µM
TGI [36]: > 100 µM
TGI [37]: > 83.6 µM
TGI [38]: > 100 µM
TGI [39]: > 100 µM
TGI [40]: > 100 µM
TGI [41]: > 100 µM
TGI [42]: > 100 µM
TGI [43]: > 100 µM
TGI [44]: > 100 µM
TGI [45]: > 100 µM
TGI [46]: > 100 µM
TGI [47]: > 100 µM
TGI [48]: > 23.6 µM
TGI [49]: > 100 µM
TGI [50]: > 100 µM
TGI [51]: > 100 µM
TGI [52]: > 100 µM
TGI [53]: > 100 µM
TGI [54]: > 100 µM
TGI [55]: > 100 µM
TGI [56]: > 100 µM
